Measurements taken from patent publication US7009053B2, “Quinoline derivatives as caspase-3 inhibitor, preparation for producing the same and pharmaceutical composition comprising the same” (Yungjin Pharmaceuticals Co., Ltd., priority 2002, dated 2006).

Biological target: T1, human recombinant caspase-3 enzyme (Homo sapiens, UniProt P42574)
T1 construct: each cDNA encoding p12 and p17 subunits of caspase-3 was PCR-amplified respectively and subcloned into a pET3-a expression vector; made in house; host or cells: E. coli BL21 (DE3), pET3-a vector
T1 sequence (P42574 29-175 limits assumed): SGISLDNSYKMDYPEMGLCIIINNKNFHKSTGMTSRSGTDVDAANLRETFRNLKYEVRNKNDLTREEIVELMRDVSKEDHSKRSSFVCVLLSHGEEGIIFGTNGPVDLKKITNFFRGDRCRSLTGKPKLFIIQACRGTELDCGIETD
T1 sequence (P42574 176-277 limits assumed): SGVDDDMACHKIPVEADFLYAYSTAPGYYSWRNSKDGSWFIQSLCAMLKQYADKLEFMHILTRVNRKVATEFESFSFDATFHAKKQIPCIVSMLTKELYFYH
Assay: Enzyme assay of caspase-3 inhibition (fluorogenic Ac-DEVD-AFC substrate)
Type: biochemical
Settings: for IC50: caspase-3, Table 1, tested at 2, 20 or 200 uM, read-out: IC50; for inhibitory activity against caspase-3 (in words): compared to the reference compound
Experimental: The active form of human recombinant caspase-3 enzyme was prepared from Escherichia coli (E.coli) heterologous expression system as described previously (Rotonda J. et al., Nat Struct Biol 3(7): 617–25, 1996). Briefly, each cDNA encoding p12 and p17 subunits of caspase-3 was PCR-amplified respectively and subcloned into a pET3-a expression vector (Novagen), which was followed by transfection into E. coli strain BL21 (DE3). The bacterial cultures (0.5 liters for each transfectant) were grown at 37° C. until logarithmic phase of cell growth and isopropyl-1-thio-β-D-galactopyranoside (IPTC) (Pharmacia) was then added to a final concentration of 0.5 mM. After 3 hr of incubation, the bacteria were pelleted and lysed in a lysis buffer (20 mM Tris hydrochloride pH 8.0, 1 mM EDTA, 2 mM dithiothreitol (DTT), 100 mM NaCl, 200 ug/ml of lysozyme) through sonication. After centrifugation, the pellets from each transfectants were dissolved in 6 M urea and were mixed and rapidly diluted 50 fold in 100 mM HEPES/KOH (pH 7.5), 10% sucrose, 0.1% CHAPS, 0.5 M NaCl, 10 mM DTT. The concentration of protein was determined with the Bradford method (Bio-Rad), with bovine serum albumin as the standard. To verify whether expected size of proteins were obtained, the cell lysates from each cDNA transfectants were analyzed on 14% SDS PAGE and visualized with Coomassie blue staining.
200 ul of the following assay solution was contained in each well of 96-well plate: 20 mM HEPES/KOH (pH 7.5), 10% sucrose, 10 mM DTT, 0.2 mM EDTA, 0.1% CHAPS, 200 ng of enzymes, and 2.5 uM of the substrate. The fluorogenic substrate […]-Asp-Glu-Val-Asp-7-amino-4-trifluoromethylcoumarin (Ac-DEVD-AFC) was purchased from Sigma (St Louis, Mo.) and dissolved in DMSO as a 2.5 mM stock solution and kept at −20° C. before use.
After 1 hr incubation at 37° C., the release of AFC (7-amino-4-trifluoromethyl-coumarin) was monitored in a fluorometric plate reader (Victor 1420). The excitation and emission wavelengths were 400 nm and 510 nm, respectively. The inhibitory effects of compounds on enzyme activities were determined with 2, 20 or 200 uM concentrations of the test compound run in triplicate tubes, and isotherms from three assays were calculated by computerized nonlinear regression analysis (GraphPad Prism Program, San Diego, Calif.) to yield IC50 values.

inhibition at 20 µM (caspase-3 activity, at 20 uM) | IC50 | %-Inhibition (caspase-3 activity, at 20 uM) | inhibitory activity against caspase-3 (in words) | SMILES
76.8% | – | – | – | CCCOC(=O)c1cnc2c(N)cccc2c1NCc1ccccn1 [Example 60, 8-Amino-4-[(pyridine-2-ylmethyl)-amino]-quinoline-3-carboxylic acid propyl ester]
76.9% | 19.1 µM | – | – | CCOC(=O)c1cnc2c(N)cccc2c1NCc1cccc(F)c1 [Example 30, 8-Amino-4-(3-fluoro-benzylamino)-quinoline-3-carboxylic acid ethyl ester]
88.9% | 15.4 µM | – | – | CCCCNc1c(C(=O)OCC)cnc2c(N)cccc12 [Example 26, 8-Amino-4-butylamino-quinoline-3-carboxylic acid ethyl ester]
83.8% | 16.2 µM | – | – | CCOC(=O)c1cnc2c(N)cccc2c1NCCc1ccccc1N [Example 46, 8-Amino-4-[2-(2-amino-phenyl)-ethylamino]-quinoline-3-carboxylic acid ethyl ester]
83.9% | 16 µM | – | – | CCOC(=O)c1cnc2c(N)cccc2c1NCc1cccc(OC)c1 [Example 34, 8-Amino-4-(3-methoxy-benzylamino)-quinoline-3-carboxylic acid ethyl ester]
77.2% | 16.6 µM | – | – | CCOC(=O)c1cnc2c(N)cccc2c1NCCc1ccccc1 [Example 38, 8-Amino-4-phenethylamino-quinoline-3-carboxylic acid ethyl ester]
82.1% | 15.3 µM | – | – | CCOC(=O)c1cnc2c(N)cccc2c1NCc1ccc(C)cc1 [Example 37, 8-Amino-4-(4-methyl-benzylamino)-quinoline-3-carboxylic acid ethyl ester]
78% | 19.2 µM | – | – | CCOC(=O)c1cnc2c(N)cccc2c1NCc1cccs1 [Example 21, 8-Amino-4-[(thiophen-2-ylmethyl)-amino]-quinoline-3-carboxylic acid ethyl ester]
88.8% | 16.5 µM | – | – | CCOC(=O)c1cnc2c(N)cccc2c1NC(CC)COC (centres unmarked) [Example 25, 8-Amino-4-(1-methoxymethyl-propylamino)-quinoline-3-carboxylic acid ethyl ester]
81.7% | 14.4 µM | – | – | CCOC(=O)c1cnc2c(N)cccc2c1NCc1ccccc1 [Example 17, 8-Amino-4-benzylamino-quinoline-3-carboxylic acid ethyl ester]
85% | 16 µM | – | – | CCCNc1c(C(=O)OCC)cnc2c(N)cccc12 [Example 45, 8-Amino-4-propylamino-quinoline-3-carboxylic acid ethyl ester]
78.8% | 16.4 µM | – | – | CCOC(=O)c1cnc2c(N)cccc2c1NCCCc1ccccc1 [Example 39, 8-Amino-4-(3-phenyl-propylamino)-quinoline-3-carboxylic acid ethyl ester]
– | – | 76.8% | – | CN1C(=O)C(=O)c2cc(S(=O)(=O)N3CCC[C@H]3COc3ccccc3)ccc21 [(S)-1-methyl-5-{1-[2-(phenoxymethyl)pyrrolidinyl]sulfonyl} isatin, reference compound]
81.7% | 16.4 µM | – | – | CCOC(=O)c1cnc2c(N)cccc2c1NCCCCc1ccccc1 [Example 40, 8-Amino-4-(4-phenyl-butylamino)-quinoline-3-carboxylic acid ethyl ester]
69.3% | 21.2 µM | – | – | CCOC(=O)c1cnc2c(N)cccc2c1NCc1cc(OC)cc(OC)c1 [Example 47, 8-Amino-4-(3,5-dimethoxy-benzylamino)-quinoline-3-carboxylic acid ethyl ester]
72.1% | 18.1 µM | – | – | CCOC(=O)c1cnc2c(N)cccc2c1NCc1cccc(OC)c1OC [Example 44, 8-Amino-4-(2,3-dimethoxy-benzylamino)-quinoline-3-carboxylic acid ethyl ester]

inhibition at 20 µM (caspase-3 activity, at 20 uM) | IC50 | %-Inhibition (caspase-3 activity, at 20 uM) | inhibitory activity against caspase-3 (in words) | SMILES
78.4% | 17.8 µM | – | – | CCOC(=O)c1cnc2c(N)cccc2c1NCc1ccccc1Cl [Example 41, 8-Amino-4-(2-chloro-benzylamino)-quinoline-3-carboxylic acid ethyl ester]
86% | 14.3 µM | – | – | CCOC(=O)c1cnc2c(N)cccc2c1NCc1ccc2c(c1)OCO2 [Example 23, 8-Amino-4-[(benzo[1,3]dioxol-5-ylmethyl)-amino]-quinoline-3-carboxylic acid ethyl ester]
82.9% | 17 µM | – | – | CCOC(=O)c1cnc2c(N)cccc2c1NCc1ccc(Cl)cc1 [Example 42, 8-Amino-4-(4-chloro-benzylamino)-quinoline-3-carboxylic acid ethyl ester]
54.7% | 27 µM | – | – | CCOC(=O)c1cnc2c(N)cccc2c1NCc1ccc(Cl)cc1Cl [Example 43, 8-Amino-4-(2,4-dichloro-benzylamino)-quinoline-3-carboxylic acid ethyl ester]
86.5% | 15.8 µM | – | – | CCOC(=O)c1cnc2c(N)cccc2c1NCc1ccc(OC)cc1 [Example 33, 8-Amino-4-(4-methoxy-benzylamino)-quinoline-3-carboxylic acid ethyl ester]
92.5% | 13.5 µM | – | superior activity | CCOC(=O)c1cnc2c(N)cccc2c1NCCCOC(C)C [Example 31, 8-Amino-4-(3-isopropoxy-propylamino)-quinoline-3-carboxylic acid ethyl ester]
82.9% | 16.9 µM | – | – | CCOC(=O)c1cnc2c(N)cccc2c1NCc1ccccc1OC [Example 32, 8-Amino-4-(2-methoxy-benzylamino)-quinoline-3-carboxylic acid ethyl ester]
78.8% | 18.8 µM | – | – | CCOC(=O)c1cnc2c(N)cccc2c1NCc1ccccc1F [Example 29, 8-Amino-4-(2-fluoro-benzylamino)-quinoline-3-carboxylic acid ethyl ester]
85.2% | 17.6 µM | – | – | CCOC(=O)c1cnc2c(N)cccc2c1NC(C)C [Example 28, 8-Amino-4-isopropylamino-quinoline-3-carboxylic acid ethyl ester]
87.8% | 15.9 µM | – | – | CCOC(=O)c1cnc2c(N)cccc2c1NCC(C)C [Example 27, 8-Amino-4-isobutylamino-quinoline-3-carboxylic acid ethyl ester]
84.9% | 14.9 µM | – | – | CCOC(=O)c1cnc2c(N)cccc2c1NCc1cccc2ccccc12 [Example 19, 8-Amino-4-[(naphthalen-1-ylmethyl)-amino]-quinoline-3-carboxylic acid ethyl ester]
91.5% | 13.6 µM | – | superior activity | CCOC(=O)c1cnc2c(N)cccc2c1NCCOC [Example 35, 8-Amino-4-(2-methoxy-ethylamino)-quinoline-3-carboxylic acid ethyl ester]
84.7% | 14.1 µM | – | – | CCOC(=O)c1cnc2c(N)cccc2c1NC1CCCCC1 [Example 18, 8-Amino-4-cyclohexylamino-quinoline-3-carboxylic acid ethyl ester]
90.1% | 13.2 µM | – | superior activity | CCOC(=O)c1cnc2c(N)cccc2c1NCc1ccccn1 [Example 20, 8-Amino-4-[(pyridin-2-ylmethyl)-amino]-quinoline-3-carboxylic acid ethyl ester]
81.4% | – | – | – | CC(C)OC(=O)c1cnc2c(N)cccc2c1NCc1ccccn1 [Example 61, 8-Amino-4-[(pyridin-2-ylmethyl)-amino]-quinoline-3-carboxylic acid isopropyl ester]
